Results published in patent publication US11821892B2, “Nanobubbles” (Purdue Research Foundation, priority 2014, dated 2023).

Key:
MB49 cells = experiment: In vitro beam steering factorial design, MB49 cell viability; assay type: cell-based, mouse
VEGF = experiment: Immunohistochemistry of mouse bladder tumors, VEGF; assay type: in vivo; conditions: ex vivo mouse bladder tumor, compared to control
Procedure: (§1) Histology slides were prepared and immunohistochemistry was performed at Immunohistochemistry Laboratory at IU Health Pathology. Harvested organ tissue and bladder tumors were fixed in formalin-free IHC Zinc Fixative, embedded in paraffin, and sectioned into 5 μm slices. HIF-1 and VEGF immunohistochemistry was performed using buffered zinc formalin fixed tumor section. Blocking, antigen retrieval, and primary and secondary antibody staining were performed […]. The tissue sections were imaged using Leica DMi1 inverted microscope, and image processing was performed using ImageJ software (Research Services, National Institute of Health). Each tissue section was imaged under ×20 and ×40 magnification, composite images were converted to RGB stacks and integrated density of staining was calculated.
(§2) Angiogenesis and high density of blood vessels has been correlated with poor prognosis, metastasis, and bladder cancer invasion in clinical studies.

HIF-1 = experiment: Immunohistochemistry of mouse bladder tumors, HIF-1; assay type: in vivo; conditions: ex vivo mouse bladder tumor, compared to control
Procedure: as §1, §2

MB49 bladder tumor [1] = conditions: MMC 1 μg/mL; ONB-MMC 0.5 μg/mL MMC and 2 mg/mL ONB; intravesical
Description: (§3) Female C57BL/6 mice were anesthetized by 1-2% isoflurane gas inhalation at 2 L/min. Electrocauterization technique was used to create a minor injury on the wall of the bladder for MB49 cells to adhere to. A 24 gauge Teflon catheter (Terumo Surflo PTFE I.V. Catheters, Fisher Scientific) was inserted into the bladder through the urethra. Minor pressure was applied onto the bladder area to release the urine from the bladder. A wire, connected to the electrocautery unit was then instilled into the bladder through the catheter. 1×10^4 MB49 cells were then instilled into the bladder; dwelling time was approximately 20 minutes to allow the cells to adhere to the injured bladder wall.
(§4) After the bubbles were injected intravesically, a pulsed wave Doppler beam was applied for five minutes and B-mode images were recorded.
(§5) The mice were imaged 48 hours after the instillation of the tumors and treatment was administered every other day based on previously established protocols.
(§6) 3D images of bladder tumor were taken every other day using the Vevo 2100 ultrasound imaging system (Fujifilm VisualSonics Inc., Toronto CA). Vevo Lab software was used to manually segment given 3D images in 2D slices, with step sizes that can be as small as 10 μm. Segmentation of a 3D image allowed accurate volume measurements to be taken from each 3D image. […]

MB49 bladder tumor [2] = experiment: Intravesical treatment with ultrasound beam steering in orthotopic MB49 bladder cancer mouse model; conditions: in vivo
Description: as §3, §4, §5, §6

CO[C@@]12[C@H](COC(N)=O)C3=C(C(=O)C(C)=C(N)C3=O)N1C[C@@H]1N[C@@H]12 [MMC, mitomycin-C]
effect on MB49 cell viability (factorial design) (MB49 cells; MMC 0.05-5 μg/mL, ONB 0.2-20 mg/mL): significant in decreasing cell viability
effect of ultrasound beam steering on cell viability (MB49 cells; beam ON/OFF, MMC 0.5 μg/mL and ONB 2 mg/mL at medium concentration): No significant effect
VEGF expression (IHC) (VEGF): significantly lower
HIF-1 expression (IHC) (HIF-1): significantly lower
tumor volume compared to CTRL (MB49 bladder tumor [1]): significant in reducing the tumor volume
average mouse body weights compared to ONB-MMC groups (MB49 bladder tumor [2]): significantly lower
